According to patent US7317000B2, “Glucose-dependent insulins” (Novo Nordisk A/S, priority 2001, dated 2008):

Target: solubilized human insulin receptor (Homo sapiens, UniProt P06213)
Test: Insulin receptor binding by competition with 125I-TyrA14 human insulin (scintillation counting)
Conditions: antibody-captured solubilized receptor on Scintiplates

Chain of solubilized human insulin receptor (P06213 28-758 limits assumed): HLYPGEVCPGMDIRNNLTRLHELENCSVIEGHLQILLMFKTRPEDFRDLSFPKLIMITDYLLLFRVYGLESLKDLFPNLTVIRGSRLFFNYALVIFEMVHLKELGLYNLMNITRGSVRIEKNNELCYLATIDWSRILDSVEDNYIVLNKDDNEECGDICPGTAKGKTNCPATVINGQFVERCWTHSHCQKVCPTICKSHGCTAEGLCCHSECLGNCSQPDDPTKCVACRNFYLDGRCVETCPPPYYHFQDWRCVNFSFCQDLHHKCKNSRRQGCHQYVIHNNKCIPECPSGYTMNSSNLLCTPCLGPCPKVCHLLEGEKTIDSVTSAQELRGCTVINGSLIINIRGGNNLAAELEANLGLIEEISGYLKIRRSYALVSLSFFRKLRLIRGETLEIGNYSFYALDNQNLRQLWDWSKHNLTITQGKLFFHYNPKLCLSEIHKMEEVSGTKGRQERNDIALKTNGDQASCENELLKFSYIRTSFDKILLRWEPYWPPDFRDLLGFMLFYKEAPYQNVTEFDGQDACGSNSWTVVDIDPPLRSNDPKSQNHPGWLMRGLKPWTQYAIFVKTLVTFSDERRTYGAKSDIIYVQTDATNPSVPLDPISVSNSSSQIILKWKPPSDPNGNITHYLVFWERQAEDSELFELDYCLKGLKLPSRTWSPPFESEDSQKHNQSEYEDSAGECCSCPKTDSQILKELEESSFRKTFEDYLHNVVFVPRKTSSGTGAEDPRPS
Chain of solubilized human insulin receptor (P06213 763-1382 partner limits assumed): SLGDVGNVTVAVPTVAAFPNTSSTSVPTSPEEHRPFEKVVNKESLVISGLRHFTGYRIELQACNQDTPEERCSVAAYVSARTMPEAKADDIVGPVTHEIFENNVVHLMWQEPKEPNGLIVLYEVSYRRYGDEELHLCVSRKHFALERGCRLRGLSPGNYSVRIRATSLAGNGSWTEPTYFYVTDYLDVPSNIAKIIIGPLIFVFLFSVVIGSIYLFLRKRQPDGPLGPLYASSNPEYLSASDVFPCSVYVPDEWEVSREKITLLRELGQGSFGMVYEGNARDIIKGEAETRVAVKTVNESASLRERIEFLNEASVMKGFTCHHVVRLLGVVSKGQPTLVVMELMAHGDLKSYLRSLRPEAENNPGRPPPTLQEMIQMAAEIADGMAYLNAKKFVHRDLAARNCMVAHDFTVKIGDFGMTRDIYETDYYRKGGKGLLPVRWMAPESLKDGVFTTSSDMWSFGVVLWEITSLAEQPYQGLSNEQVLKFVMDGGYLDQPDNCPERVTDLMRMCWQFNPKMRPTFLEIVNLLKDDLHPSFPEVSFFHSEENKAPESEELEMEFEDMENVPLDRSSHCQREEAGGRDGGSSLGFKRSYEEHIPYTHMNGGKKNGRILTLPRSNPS

| Kd [nM] | Substance |
| --- | --- |
| 0.015 | Lys^B29(N^ε-(4-carboxyphenylalanine-N-methyl-glucamide), N^α-(4-borono-phenylsulfonyl)) des(B30), human insulin [Compound 23] |
| 0.016 | Lys^B29-(N^ε(γ-L-glutamyl-α-D-glucamide, N^α-(3-borono-5-nitro-benzoyl)) des(B30) human insulin [Compound 10] |
